In ChEMBL document CHEMBL4422651, “Revisiting tubercidin against kinetoplastid parasites: Aromatic substitutions at position 7 improve activity and reduce toxicity” (Eur J Med Chem, 2019):
Activity calls are given as the source filed them. The calls are words filed in the database; no cut-off is given here.

Columns and labels:
[1] = test system: Trypanosoma brucei rhodesiense; assay: Antitrypanosomal activity against Trypanosoma brucei rhodesiense STIB-900 after 48 hrs by alamar blue assay; type: functional, organism-based; conditions: STIB-900, 48 h
[2] = test system: Trypanosoma brucei brucei; assay: Antitrypanosomal activity against Trypanosoma brucei brucei Squib 427 after 48 hrs by alamar blue assay; type: functional, organism-based; conditions: Squib 427, 48 h
[3] = Selectivity index, ratio of EC50 for human MRC5 cells to EC50 for Trypanosoma brucei rhodesiense STIB-900; type: toxicity; conditions: read-out: Ratio EC50
[4] = Selectivity index, ratio of EC50 for human MRC5 cells to EC50 for Trypanosoma brucei brucei Squib 427; type: toxicity; conditions: read-out: Ratio EC50
Trypanosoma cruzi [5] = assay: Antitrypanosomal activity against nifurtimox-sensitive Trypanosoma cruzi Tulahuen CL2 harboring beta-galactosidase infected in human MRC5 cells after 7 days by resazurin dye-based assay; type: functional, organism-based; conditions: for EC50: Tulahuen CL2, MRC5, 168 h
MRC5 = assay: Cytotoxicity against human MRC5 cells assessed as reduction in cell viability after 3 days by resazurin dye-based assay; conditions: MRC5, 72 h
[6] = Selectivity index, ratio of EC50 for human MRC5 cells to EC50 for nifurtimox-sensitive Trypanosoma cruzi Tulahuen CL2 harboring beta-galactosidase; type: toxicity; conditions: read-out: Ratio EC50
Leishmania infantum = assay: Antileishmanial activity against Leishmania infantum amastigotes infected in Swiss mouse primary peritoneal macrophages assessed as reduction in parasite burden after 5 days by Giemsa staining-based microscopic analysis; type: functional, organism-based; conditions: 120 h
Peritoneal macrophage = assay: Cytotoxicity against Swiss mouse primary peritoneal macrophages assessed as reduction in cell viability after 5 days; type: cell-based; conditions: 120 h
Trypanosoma cruzi [7] = assay: Potency index, ratio of EC50 for benznidazole to EC50 for test compound for antitrypanosomal activity against nifurtimox-sensitive Trypanosoma cruzi Tulahuen CL2 harboring beta-galactosidase infected in human MRC5 cells after 7 days by resazurin dye-based assay; type: functional
Trypanosoma brucei [8] = assay: Antitrypanosomal activity against wild type Trypanosoma brucei Lister 427 after 48 hrs by alamar blue assay; type: functional, organism-based; conditions: Lister 427, 48 h
Trypanosoma brucei [9] = assay: Antitrypanosomal activity against pentamidine/diminazene/melaminophenyl arsenical resistant Trypanosoma brucei B48 after 48 hrs by alamar blue assay; type: functional, organism-based; conditions: B48, 48 h
Trypanosoma brucei [10] = assay: Antitrypanosomal activity against isometamidium resistant Trypanosoma brucei ISMR1 after 48 hrs by alamar blue assay; type: functional, organism-based; conditions: ISMR1, 48 h
Trypanosoma brucei [11] = assay: Antitrypanosomal activity against Trypanosoma brucei TbAT1-KO after 48 hrs by alamar blue assay; type: functional, organism-based
[12] = Inhibition of [3H]-adenosine transport at Trypanosoma brucei Adenosine transporter P2 expressed in pentamidine/diminazene/melaminophenyl arsenical resistant Trypanosoma brucei B48 bloodstream forms after 60 secs by scintillation counting analysis
[13] = Inhibition of [3H]-adenosine transport at Trypanosoma brucei Adenosine transporter P1 expressed in pentamidine/diminazene/melaminophenyl arsenical resistant Trypanosoma brucei B48 bloodstream forms after 60 secs by scintillation counting analysis

**Q.** For `Nc1ncnc2c1c(-c1ccccc1)cn2[C@@H]1O[C@H](CO)[C@@H](O)[C@H]1O`, which EC50 [1] is on record?
**A.** 4.1 µM

**Q.** What about the EC50 [2] of the same molecule?
**A.** 32.3 µM

**Q.** What about the selectivity ratio [3] of the same molecule?
**A.** 14

**Q.** What about the selectivity ratio [4] of the same molecule?
**A.** 1.7

**Q.** What about the Activity (Trypanosoma cruzi [5]) of the same molecule?
**A.** inactive

**Q.** And the EC50 (MRC5)?
**A.** 56.2 µM

**Q.** For `Cc1ccc(-c2cn([C@@H]3O[C@H](CO)[C@@H](O)[C@H]3O)c3ncnc(N)c23)cc1`, which EC50 [2] is on record?
**A.** 29.1 µM

**Q.** And the selectivity ratio [4]?
**A.** 0.9

**Q.** And the Activity (Trypanosoma cruzi [5])?
**A.** inactive

**Q.** What about the EC50 (MRC5) of the same molecule?
**A.** 26.2 µM

**Q.** With `Cn1cnc(-c2cn([C@@H]3O[C@H](CO)[C@@H](O)[C@H]3O)c3ncnc(N)c23)c1` as the molecule, how does the EC50 [2] read?
**A.** 4.76 µM

**Q.** What about the selectivity ratio [4] of the same molecule?
**A.** 4.9

**Q.** What about the Activity (Trypanosoma cruzi [5]) of the same molecule?
**A.** inactive

**Q.** And the EC50 (MRC5)?
**A.** 23.4 µM

**Q.** Which selectivity ratio [6] does the source give for `O=C(Cn1ccnc1[N+](=O)[O-])NCc1ccccc1` [BENZNIDAZOLE] here?
**A.** > 23

**Q.** What about the EC50 (MRC5) of the same molecule?
**A.** > 64 µM

**Q.** For `Nc1ncnc2c1c(-c1ccc(Cl)c(Cl)c1)cn2[C@@H]1O[C@H](CO)[C@@H](O)[C@H]1O`, which EC50 [1] is on record?
**A.** 0.32 µM

**Q.** And the EC50 (Leishmania infantum)?
**A.** 1.67 µM

**Q.** What about the selectivity ratio [6] of the same molecule?
**A.** 77.4

**Q.** And the EC50 (Peritoneal macrophage; Mus musculus, Swiss, Peritoneal macrophage)?
**A.** 20 µM

**Q.** What about the “Ratio EC50” value (Trypanosoma cruzi [7]) of the same molecule?
**A.** <=10

**Q.** And the EC50 [2]?
**A.** 3.07 µM

**Q.** What about the selectivity ratio [3] of the same molecule?
**A.** 46

**Q.** And the selectivity ratio [4]?
**A.** 4.8

**Q.** What about the EC50 (Trypanosoma cruzi [5]) of the same molecule?
**A.** 0.19 µM

**Q.** And the EC50 (MRC5)?
**A.** 14.7 µM

**Q.** What does the source list for `CC[n+]1c(-c2ccccc2)c2cc(N/N=N/c3cccc(C(=N)N)c3)ccc2c2ccc(N)cc21` [ISOMETAMIDIUM]?
**A.** EC50 (Trypanosoma brucei [8]): 0.65 µM; EC50 (Trypanosoma brucei [9]): 0.56 µM; EC50 (Trypanosoma brucei [10]): 3.1 µM; EC50 (Trypanosoma brucei [11]): 0.75 µM

**Q.** Which EC50 [1] does the source give for `Nc1ncnc2c1c(-c1ccc(F)cn1)cn2[C@@H]1O[C@H](CO)[C@@H](O)[C@H]1O` here?
**A.** 1.69 µM

**Q.** And the EC50 [2]?
**A.** 4.77 µM

**Q.** And the selectivity ratio [3]?
**A.** > 38

**Q.** And the selectivity ratio [4]?
**A.** > 13

**Q.** What about the Activity (Trypanosoma cruzi [5]) of the same molecule?
**A.** inactive

**Q.** What about the EC50 (MRC5) of the same molecule?
**A.** > 64 µM

**Q.** With `Nc1ncnc2c1c(-c1ccncc1)cn2[C@@H]1O[C@H](CO)[C@@H](O)[C@H]1O` as the molecule, how does the Ki [12] read?
**A.** 9.34 µM

**Q.** What about the EC50 [2] of the same molecule?
**A.** > 64 µM

**Q.** What about the Activity (Trypanosoma cruzi [5]) of the same molecule?
**A.** inactive

**Q.** What about the Ki [13] of the same molecule?
**A.** 12.5 µM

**Q.** And the EC50 (MRC5)?
**A.** 55.8 µM

**Q.** What does the source list for `COc1ccnc(-c2cn([C@@H]3O[C@H](CO)[C@@H](O)[C@H]3O)c3ncnc(N)c23)c1`?
**A.** EC50 [1]: 8.15 µM; EC50 [2]: 25.5 µM; selectivity ratio [3]: 0.9; selectivity ratio [4]: 0.3; Activity (Trypanosoma cruzi [5]): inactive; EC50 (MRC5): 7.59 µM

**Q.** What does the source list for `Nc1ncnc2c1c(-c1ccccc1F)cn2[C@@H]1O[C@H](CO)[C@@H](O)[C@H]1O`?
**A.** EC50 [1]: 26.3 µM; EC50 [2]: 33.3 µM; selectivity ratio [3]: 2.3; selectivity ratio [4]: 1.8; Activity (Trypanosoma cruzi [5]): inactive; EC50 (MRC5): 61 µM

**Q.** With `Cc1ccnc(-c2cn([C@@H]3O[C@H](CO)[C@@H](O)[C@H]3O)c3ncnc(N)c23)c1` as the molecule, how does the EC50 [1] read?
**A.** 25.1 µM

**Q.** And the EC50 [2]?
**A.** 38.2 µM

**Q.** And the selectivity ratio [3]?
**A.** > 2.5

**Q.** What about the selectivity ratio [4] of the same molecule?
**A.** > 1.7

**Q.** What about the Activity (Trypanosoma cruzi [5]) of the same molecule?
**A.** inactive

**Q.** And the EC50 (MRC5)?
**A.** > 64 µM

**Q.** For `Nc1ncnc2c1c(-c1cccnc1)cn2[C@@H]1O[C@H](CO)[C@@H](O)[C@H]1O`, which Ki [12] is on record?
**A.** 49.3 µM

**Q.** What about the EC50 [2] of the same molecule?
**A.** > 64 µM

**Q.** What about the Activity (Trypanosoma cruzi [5]) of the same molecule?
**A.** inactive

**Q.** And the Ki [13]?
**A.** 21.7 µM

**Q.** What about the EC50 (MRC5) of the same molecule?
**A.** > 64 µM

**Q.** Which results are given for `Cc1ccc(C(=O)Nc2ccc(S(=O)(=O)O)c3cc(S(=O)(=O)O)cc(S(=O)(=O)O)c23)cc1NC(=O)c1cccc(NC(=O)Nc2cccc(C(=O)Nc3cc(C(=O)Nc4ccc(S(=O)(=O)O)c5cc(S(=O)(=O)O)cc(S(=O)(=O)O)c45)ccc3C)c2)c1` [SURAMIN]?
**A.** EC50 [1]: 0.04 µM; EC50 [2]: 0.05 µM; selectivity ratio [3]: > 1600; selectivity ratio [4]: > 1280; EC50 (MRC5): > 64 µM

**Q.** Which EC50 [1] does the source give for `Nc1ncnc2c1c(-c1ccc3ccccc3c1)cn2[C@@H]1O[C@H](CO)[C@@H](O)[C@H]1O` here?
**A.** 6.79 µM

**Q.** And the EC50 [2]?
**A.** 7.83 µM

**Q.** What about the selectivity ratio [3] of the same molecule?
**A.** 1.2

**Q.** And the selectivity ratio [4]?
**A.** 0.96

**Q.** And the Activity (Trypanosoma cruzi [5])?
**A.** inactive

**Q.** And the EC50 (MRC5)?
**A.** 7.53 µM

**Q.** Which results are given for `Nc1ncnc2c1c(-c1ccc3ccccc3n1)cn2[C@@H]1O[C@H](CO)[C@@H](O)[C@H]1O`?
**A.** EC50 [1]: 3.72 µM; EC50 [2]: 6.45 µM; selectivity ratio [3]: > 17; selectivity ratio [4]: > 9.9; Activity (Trypanosoma cruzi [5]): inactive; EC50 (MRC5): > 64 µM

**Q.** Which results are given for `Nc1ncnc2c1ccn2[C@@H]1O[C@H](CO)[C@@H](O)[C@H]1O` [TUBERCIDIN]?
**A.** Ki [12]: 3.8 µM; EC50 (Trypanosoma brucei [8]): 0.15 µM; EC50 (Leishmania infantum): 0.13 µM; selectivity ratio [6]: 6.5; EC50 (Trypanosoma brucei [9]): 4.3 µM; Activity (Peritoneal macrophage; mouse, peritoneal macrophage): Toxic; EC50 [2]: 0.48 µM; EC50 (Trypanosoma brucei [10]): 1.7 µM; selectivity ratio [4]: 4.6; EC50 (Trypanosoma cruzi [5]): 0.34 µM; EC50 (Trypanosoma brucei [11]): 2.61 µM; Ki [13]: 78 µM; EC50 (MRC5): 2.23 µM

**Q.** Which EC50 [1] does the source give for `Nc1ncnc2c1c(-c1cc(Cl)ccn1)cn2[C@@H]1O[C@H](CO)[C@@H](O)[C@H]1O` here?
**A.** 6.88 µM

**Q.** What about the EC50 [2] of the same molecule?
**A.** 8.92 µM

**Q.** And the selectivity ratio [3]?
**A.** 4

**Q.** What about the selectivity ratio [4] of the same molecule?
**A.** 3.1

**Q.** What about the Activity (Trypanosoma cruzi [5]) of the same molecule?
**A.** inactive

**Q.** What about the EC50 (MRC5) of the same molecule?
**A.** 27.3 µM
